Measured values: ChEMBL document CHEMBL1201862, “PubChem BioAssay data set” (2004)
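48-hour exposure; five concentrations; linearly interpolated endpoints. At the GI50, growth is halved.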 The source made the active and inactive calls. Cut-off read from the data, not from the text of the source: active = GI50 up to about 1.1 µM and inactive = higher.

Legend:
Assay in all cases: NCI-60 cell line screen, 48 h
UACC-257 = system: UACC-257
SNB-75 = system: SNB-75
OVCAR-4 = system: OVCAR-4
HOP-92 = system: HOP-92
MCF7 = system: MCF7
CCRF-CEM = system: CCRF-CEM
XF498 = system: XF498
OVCAR-3 = system: OVCAR-3
OVCAR-5 = system: OVCAR-5
UO-31 = system: UO-31
CAKI-1 = system: CAKI-1
HOP-18 = system: HOP-18
OVCAR-8 = system: OVCAR-8
M14 = system: M14
786-0 = system: 786-0
NCI/ADR-RES = system: NCI/ADR-RES
MDA-MB-231 = system: MDA-MB-231
MDA-N = system: MDA-N
BT-549 = system: BT-549

Compound	GI50 (UACC-257)	GI50 (SNB-75)	GI50 (OVCAR-4)	GI50 (HOP-92)	GI50 (MCF7)	GI50 (CCRF-CEM)	GI50 (XF498)	GI50 (OVCAR-3)	GI50 (OVCAR-5)	GI50 (UO-31)	GI50 (CAKI-1)	GI50 (HOP-18)	GI50 (OVCAR-8)	GI50 (M14)	GI50 (786-0)	GI50 (NCI/ADR-RES)	GI50 (MDA-MB-231)	GI50 (MDA-N)	GI50 (BT-549)
Cc1c2cc[n+](C)cc2c(C)c2c1[nH]c1ccccc12	5.97 µM (inactive)	0.193 µM (active)	2.77 µM (inactive)	1.33 µM (inactive)	3.08 µM (inactive)	2.33 µM (inactive)	0.548 µM (active)	2.99 µM (inactive)	9.84 µM (inactive)	15.8 µM (inactive)	4.39 µM (inactive)	2.82 µM (inactive)	0.399 µM (active)						
CC(=O)c1c2c(cc3c1CC1(C3)Cc3cc4c(c(C(=O)O)c3C1)CCC4)CCC2 (stereo unspecified)	45 µM (inactive)	69.8 µM (inactive)	49.1 µM (inactive)	33.2 µM (inactive)		27.7 µM (inactive)	57.1 µM (inactive)	19.7 µM (inactive)	> 100 µM (inactive)	26.9 µM (inactive)	36.9 µM (inactive)	79.8 µM (inactive)	41 µM (inactive)	41.2 µM (inactive)	47.2 µM (inactive)				
CC(C)NC(=O)OCc1c2c(n(C)c1COC(=O)NC(C)C)-c1ccccc1CC2	15.2 µM (inactive)	14.1 µM (inactive)	15 µM (inactive)	6.73 µM (inactive)	10.5 µM (inactive)	2.07 µM (inactive)	13.1 µM (inactive)	14.2 µM (inactive)	17.2 µM (inactive)	14.8 µM (inactive)	9.14 µM (inactive)	2.28 µM (inactive)	12 µM (inactive)			15 µM (inactive)			
O=C(Cc1nc2ccc(C(=O)c3ccccc3)cc2nc1O)C(=O)Nc1ccc(C(F)(F)F)cc1[N+](=O)[O-]	> 100 µM (inactive)	45.9 µM (inactive)	> 100 µM (inactive)	35.3 µM (inactive)		27.3 µM (inactive)	27.5 µM (inactive)	38.7 µM (inactive)	> 100 µM (inactive)	61.2 µM (inactive)	30.8 µM (inactive)	65.2 µM (inactive)	69 µM (inactive)	> 100 µM (inactive)	> 100 µM (inactive)				
CN(C)c1ccc(/N=C2/C=CC(=C(C#N)C#N)c3ccccc32)cc1	1.49 µM (inactive)	0.363 µM (active)	0.906 µM (active)	0.07 µM (active)	0.178 µM (active)	0.094 µM (active)	0.261 µM (active)	0.118 µM (active)	0.326 µM (active)	0.893 µM (active)	0.55 µM (active)	1.14 µM (inactive)	0.213 µM (active)	0.145 µM (active)	0.385 µM (active)	0.0975 µM (active)	0.307 µM (active)	0.0365 µM (active)	0.828 µM (active)
O=C1N[C@@H]2C(=C[C@H](O)[C@@H](O)[C@H]2O)c2cc3c(c(O)c21)OCO3 [NARCICLASINE]	0.045 µM (active)	0.045 µM (active)	0.142 µM (active)	0.045 µM (active)		0.045 µM (active)	0.045 µM (active)	0.045 µM (active)	0.0632 µM (active)	0.045 µM (active)	0.045 µM (active)	0.0535 µM (active)	0.045 µM (active)			0.045 µM (active)			
Nc1cc[nH]c(=O)n1	> 100 µM (inactive)	> 100 µM (inactive)	> 100 µM (inactive)	> 100 µM (inactive)		> 100 µM (inactive)	> 100 µM (inactive)	> 100 µM (inactive)	> 100 µM (inactive)	> 100 µM (inactive)	> 100 µM (inactive)	> 100 µM (inactive)	> 100 µM (inactive)	> 100 µM (inactive)	> 100 µM (inactive)				
